The values that follow come from publication PMC3276566, “Specialized Peptidoglycan Hydrolases Sculpt the Intra-bacterial Niche of Predatory Bdellovibrio and Increase Population Fitness” (PLoS Pathogens, 2012).

The target in test [1] is T1, Bd3459 (Bdellovibrio bacteriovorus, UniProt Q6MHT0, A37M).
T1 construct: E. coli BL21(DE3), modified pET41 (GST removed), Hi-Trap His column; about 46 kDa; likely monomer
Kind of test: HPLC muropeptide analysis of digested pentapeptide-rich peptidoglycan; also competition with Bocillin-FL labelling. The conditions noted are these: inhibitor pre-incubated at 0.4 mg/ml, 30 min, 37 °C; E. coli CS703-1 peptidoglycan, 20 mM sodium phosphate pH 4.8; labelling assay 2.5 ug/ml ampicillin. The test is classed as biochemical.

For test [2], the target named is T2, Bd3459 (Bdellovibrio bacteriovorus, UniProt Q6MHT0, A37M/S70A).
T2 construct: E. coli BL21(DE3), modified pET41 (GST removed), Hi-Trap His column; about 46 kDa; likely monomer
The test is described as follows: fluorescent labelling, SDS-PAGE, Typhoon fluorescence scan. Type of test: binding. The settings on record: active-site serine mutant; labelled compound; 1.25 ug/ml Bocillin-FL, 75 ug/ml protein, 20 mM sodium phosphate pH 4.8, 10 min, 37 °C.

Test [3] has as its target T1, Bd3459. The test is described as above. The test is classed as binding. The conditions noted are these: covalent; labelled compound; 1.25 ug/ml Bocillin-FL, 75 ug/ml protein, 20 mM sodium phosphate pH 4.8, 10 min, 37 °C.

T1 sequence (Q6MHT0 entry or part of it A37M): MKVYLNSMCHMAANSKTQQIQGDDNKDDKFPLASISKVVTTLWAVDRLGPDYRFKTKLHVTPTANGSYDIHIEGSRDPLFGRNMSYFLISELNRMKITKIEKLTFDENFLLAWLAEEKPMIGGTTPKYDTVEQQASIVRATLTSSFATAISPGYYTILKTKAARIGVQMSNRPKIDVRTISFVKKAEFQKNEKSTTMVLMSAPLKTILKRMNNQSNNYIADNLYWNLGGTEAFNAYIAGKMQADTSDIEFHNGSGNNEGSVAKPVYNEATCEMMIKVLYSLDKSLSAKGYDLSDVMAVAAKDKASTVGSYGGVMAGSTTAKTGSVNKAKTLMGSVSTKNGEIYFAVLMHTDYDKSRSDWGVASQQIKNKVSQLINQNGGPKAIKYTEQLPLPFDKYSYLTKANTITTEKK
T2 sequence (Q6MHT0 entry or part of it A37M/S70A): as the sequence (Q6MHT0 entry or part of it A37M) above, with S34A counted along it

Regarding `CC1(C)S[C@@H]2[C@H](NC(=O)[C@H](N)c3ccccc3)C(=O)N2[C@H]1C(=O)O` [ampicillin], the “HPLC muropeptide analysis of digested pentapeptide-rich peptidoglycan; also comp” value in test [1] is “The addition of the beta-lactam ampicillin inhibited the WT enzyme”.

Regarding `Cc1cc(C)n2c1C=C1C=CC(CCC(=O)Nc3ccc(OCC(=O)N[C@@H]4C(=O)N5[C@@H]4SC(C)(C)[C@@H]5C(=O)O)cc3)=[N+]1[B-]2(F)F` [Bocillin-FL], the figures for the “fluorescent labelling, SDS-PAGE, Typhoon fluorescence scan” value in test [2] and in test [3] were “Bd3459 (S70A) bound significantly less Bocillin-FL” and “Bd3459 covalently bound the fluorescent beta-lactam Bocillin-FL”, respectively.
